Positions of bridges follow the written chain, without caps; N, C: chain ends. Non-standard residues stand in square brackets, D forms with d. Residues, ends and D or L forms follow the SMILES beside them. Chains are numbered I, II in the order given. *: point of attachment. NOTA = O=C(O)CN1CCN(CC(=O)O)CCN(CC(=O)*)CC1
Assays:
[1] = In vivo radiometabolite analysis in plasma and urine; set-up: species or system mouse; settings: wild-type mice
Protocol: Plasma samples were obtained by decapitation 15 min p.i. (n = 2). Blood was collected in EDTA tubes and centrifuged for 5 min at 3000× g. Subsequently, plasma was removed and diluted (1:2) with acetonitrile to precipitate all plasma proteins. After centrifugation (5 min at 3000× g), the supernatant was diluted (1:10) with water and filtered (0.22 µm) before injection on radioHPLC. Urine samples were collected 75 min p.i. (n = 3) by gently pressing on the bladder. The collected urine was filtered (0.22 µm) before injection on radioHPLC. Due to low radioactivity concentration in the plasma samples, 30 fractions of 30 s per plasma sample were collected. Radioactivity in the fractions was determined in an automated gamma counter.

[2] = PET/CT imaging in wild-type mice; assay type: in vivo, mouse; settings: dynamic PET 0–60 min p.i., AMD3100 5 mg/kg
Protocol: Dynamic PET images were acquired for 60 min immediately after intravenous injection using a beta-cube PET scanner (Molecubes, Gent, Belgium). The mice were kept under gas anesthesia during the entire procedure (2.5% isoflurane in O2 at 1 L/min flow rate), with temperature and respiration monitored throughout. After PET scanning, a CT image was acquired for anatomic coregistration with an X-cube CT scanner (Molecubes, Gent, Belgium), using the ‘general’ protocol with the following parameters: 50 kVp, 480 exposures, 85 ms/projection, 100 μA tube current, rotation time 60 s. After scanning, mice were sacrificed 75 min p.i. and a whole-body biodistribution study was performed.
PET data were histogrammed into 14 frames (4 × 15 s, 4 × 1 min, 1 × 5 min, 5 × 10 min) and reconstructed into a 192 × 192 image matrix with 0.4 mm voxels using 30 iterations the native MLEM algorithm with corrections for randoms, scatter, attenuation and decay. CT Data were reconstructed using a regularized statistical (iterative) image reconstruction algorithm using non-negative least squares, using an isotropic 200 μm voxel size and scaled to Hounsfield Units (HUs) after calibration against a standard air/water phantom. […] Radiotracer uptake at 60 min, expressed as SUVmean, was the outcome measure.

[3] = Ex vivo biodistribution in wild-type mice; settings: mouse, total radioactivity, 75 min p.i., ex vivo gamma counting, mean ± SD
Protocol: The in vivo pharmacokinetics of the selected radioligands were first evaluated in wild-type mice by performing a whole-body biodistribution study. […] Blood and major organs were collected in tared tubes and weighed. Quantification of radioactivity in blood, organs, and other body parts was performed using an automated gamma counter equipped with a 3-inch NaI(Tl) well crystal coupled to a multichannel analyzer, mounted in a sample changer (2480 Wizard^2, Perkin Elmer, Waltham, MA, USA). Counts were corrected for background radiation, physical decay and counter dead time. Results are presented as standardized uptake values (SUV; tissue activity concentration (MBq/g)/[injected dose (MBq)/body weight (g)]).

[4] = Ex vivo biodistribution in U87.hCXCR4 tumor-bearing mice; set-up: species or system mouse; settings: female, SCID (CB17.Cg-Prkdc<scid>Lyst<bg-J>/Crl), mouse, iv, total radioactivity, 75 min p.i., mean ± SD

SMILES: CC(C)C[C@@H](N)C(=O)NCC(=O)N[C@H](C)C(=O)N[C@H](CO)C(=O)N[C@H](Cc1c[nH]c2ccccc12)C(=O)N[C@H](Cc1c[nH]cn1)C(=O)N[C@H](CCCNC(=N)N)C(=O)N1CCC[C@@H]1C(=O)N[C@H](CC(=O)O)C(=O)N[C@H](CCCCNC(=O)CN1CCN(CC(=O)O)CCN(CC(=O)O)CC1)C(=O)NCCCC[C@@H](NC(=O)[C@H]1CCCN1C(=O)[C@@H](CC(C)C)NC(=O)[C@H]1CCCN1C(=O)[C@@H](CCCNC(=N)N)NC(=O)[C@@H](CCCCN)NC(=O)[C@@H](CCC(N)=O)NC(=O)[C@@H](Cc1ccc(O)cc1)NC(=O)CNC(=O)[C@@H](CC(C)C)NC(=O)[C@@H](CS)NC(=O)[C@@H](CS)NC(=O)[C@@H](CCCCN)NC(=O)[C@@H](CC(=O)O)NC(=O)[C@H]1CCCN1C(=O)[C@@H](CCCNC(=N)N)NC(=O)[C@@H](Cc1c[nH]cn1)NC(=O)[C@@H](Cc1c[nH]c2ccccc12)NC(=O)[C@@H](CO)NC(=O)[C@@H](C)NC(=O)CNC(=O)[C@H](N)CC(C)C)C(=O)O [[^18F]AlF-NOTA-DV1-k-(DV3)] (I: H-[dL]G[dA][dS][dW][dH][dR][dP][dD][dK][dC][dC][dL]G[dY][dQ][dK][dR][dP][dL][dP][dK]-OH / II: H-[dL]G[dA][dS][dW][dH][dR][dP][dD][dK](NOTA); amide I:22-II:C)
- parent (intact) radioligand in plasma ([1]; i.v., plasma 15 min p.i., radioHPLC fractions, gamma counter, n = 2): 86 ± 0.1%
- parent (intact) radioligand in urine ([1]; i.v., urine 75 min p.i., radioHPLC, n = 3): 37 ± 2%
- polar metabolites in plasma ([1]; plasma 15 min p.i., n = 2): 14 ± 0.1%
- polar metabolites in urine ([1]; urine 75 min p.i., n = 3): 63 ± 2%
- kidney uptake on co-injection of AMD3100 [2]: increased with a factor of two
- liver retention on co-injection of AMD3100 [2]: completely blocked
- SUV at 1.25 h ([3]; blood, + AMD3100 5 mg/kg, n: PentixaFor 1, 18F 2, 68Ga 4, 177Lu 3, read-out: blood uptake): 0.5 SUV
- SUV at 1.25 h ([3]; blood, tracer alone, n: PentixaFor 3, 18F 5, 68Ga 4, 177Lu 3, read-out: blood uptake): 0.2 ± 0.1 SUV
- SUV at 1.25 h ([3]; bone (femur harboring bone marrow), tracer alone, n: PentixaFor 3, 18F 5, 68Ga 4, 177Lu 3, read-out: bone uptake (femur harboring bone marrow)): 0.7 ± 0.4 SUV
- SUV at 1.25 h ([3]; brain, + AMD3100 5 mg/kg, n: PentixaFor 1, 18F 2, 68Ga 4, 177Lu 3, read-out: brain uptake): 0.02 SUV
- SUV at 1.25 h ([3]; brain, tracer alone, n: PentixaFor 3, 18F 5, 68Ga 4, 177Lu 3, read-out: brain uptake): 0.01 ± 0.003 SUV
- SUV at 1.25 h ([3]; heart, + AMD3100 5 mg/kg, n: PentixaFor 1, 18F 2, 68Ga 4, 177Lu 3, read-out: heart uptake): 0.2 SUV
- SUV at 1.25 h ([3]; heart, tracer alone, n: PentixaFor 3, 18F 5, 68Ga 4, 177Lu 3, read-out: heart uptake): 0.2 ± 0.1 SUV
- SUV at 1.25 h ([3]; kidneys, + AMD3100 5 mg/kg, n: PentixaFor 1, 18F 2, 68Ga 4, 177Lu 3, read-out: kidneys uptake): 35.4 SUV
- SUV at 1.25 h ([3]; kidneys, tracer alone, n: PentixaFor 3, 18F 5, 68Ga 4, 177Lu 3, read-out: kidneys uptake): 23.2 ± 3.9 SUV
- SUV at 1.25 h ([3]; liver, + AMD3100 5 mg/kg, n: PentixaFor 1, 18F 2, 68Ga 4, 177Lu 3, read-out: liver uptake): 1 SUV
- SUV at 1.25 h ([3]; liver, tracer alone, n: PentixaFor 3, 18F 5, 68Ga 4, 177Lu 3, read-out: liver uptake): 7.4 ± 0.5 SUV
- SUV at 1.25 h ([3]; lungs, + AMD3100 5 mg/kg, n: PentixaFor 1, 18F 2, 68Ga 4, 177Lu 3, read-out: lungs uptake): 0.8 SUV
- SUV at 1.25 h ([3]; lungs, tracer alone, n: PentixaFor 3, 18F 5, 68Ga 4, 177Lu 3, read-out: lungs uptake): 0.8 ± 0.2 SUV
- SUV at 1.25 h ([3]; pancreas, + AMD3100 5 mg/kg, n: PentixaFor 1, 18F 2, 68Ga 4, 177Lu 3, read-out: pancreas uptake): 0.1 SUV
- SUV at 1.25 h ([3]; pancreas, tracer alone, n: PentixaFor 3, 18F 5, 68Ga 4, 177Lu 3, read-out: pancreas uptake): 0.1 ± 0.02 SUV
- SUV at 1.25 h ([3]; spleen, + AMD3100 5 mg/kg, n: PentixaFor 1, 18F 2, 68Ga 4, 177Lu 3, read-out: spleen uptake): 0.9 SUV
- SUV at 1.25 h ([3]; spleen, tracer alone, n: PentixaFor 3, 18F 5, 68Ga 4, 177Lu 3, read-out: spleen uptake): 3.2 ± 0.8 SUV
- SUV at 1.25 h ([4]; blood, co-injected DV1-k-(DV3) 7 nmol, n = 3, read-out: blood uptake): 0.4 ± 0.2 SUV
- SUV at 1.25 h ([4]; blood, co-injected DV1-k-(DV3) 14 nmol, n = 4, read-out: blood uptake): 0.5 ± 0.3 SUV
- SUV at 1.25 h ([4]; blood, tracer alone (0 nmol), n = 4, read-out: blood uptake): 0.1 ± 0.1 SUV
- SUV at 1.25 h ([4]; blood, with AMD3100 5 mg/kg (157 nmol), co-injected, co-injected AMD3100 5 mg/kg (157 nmol), n = 4, read-out: blood uptake): 0.3 ± 0.2 SUV
- SUV at 1.25 h ([4]; bone, co-injected AMD3100 5 mg/kg (157 nmol), n = 4, read-out: bone uptake): 0.1 ± 0.04 SUV
- SUV at 1.25 h ([4]; bone, co-injected DV1-k-(DV3) 7 nmol, n = 3, read-out: bone uptake): 0.2 ± 0.04 SUV
- SUV at 1.25 h ([4]; bone, co-injected DV1-k-(DV3) 14 nmol, n = 4, read-out: bone uptake): 0.3 ± 0.1 SUV
- SUV at 1.25 h ([4]; bone, co-injected DV1-k-(DV3) 24 nmol, n = 4, read-out: bone uptake): 0.2 ± 0.04 SUV
- SUV at 1.25 h ([4]; bone, tracer alone (0 nmol), n = 4, read-out: bone uptake): 0.4 ± 0.1 SUV
- SUV at 1.25 h ([4]; brain, co-injected AMD3100 5 mg/kg (157 nmol), n = 4, read-out: brain uptake): 0.01 ± 0.004 SUV
- SUV at 1.25 h ([4]; brain, co-injected DV1-k-(DV3) 7 nmol, n = 3, read-out: brain uptake): 0.02 ± 0.01 SUV
- SUV at 1.25 h ([4]; brain, co-injected DV1-k-(DV3) 14 nmol, n = 4, read-out: brain uptake): 0.03 ± 0.01 SUV
- SUV at 1.25 h ([4]; brain, co-injected DV1-k-(DV3) 24 nmol, n = 4, read-out: brain uptake): 0.02 ± 0.01 SUV
- SUV at 1.25 h ([4]; brain, tracer alone (0 nmol), n = 4, read-out: brain uptake): 0.01 ± 0.001 SUV
- SUV at 1.25 h ([4]; heart, co-injected AMD3100 5 mg/kg (157 nmol), n = 4, read-out: heart uptake): 0.1 ± 0.1 SUV
- SUV at 1.25 h ([4]; heart, co-injected DV1-k-(DV3) 7 nmol, n = 3, read-out: heart uptake): 0.2 ± 0.1 SUV
- SUV at 1.25 h ([4]; heart, co-injected DV1-k-(DV3) 14 nmol, n = 4, read-out: heart uptake): 0.3 ± 0.1 SUV
- SUV at 1.25 h ([4]; heart, co-injected DV1-k-(DV3) 24 nmol, n = 4, read-out: heart uptake): 0.2 ± 0.1 SUV
- SUV at 1.25 h ([4]; heart, tracer alone (0 nmol), n = 4, read-out: heart uptake): 0.1 ± 0.04 SUV
- SUV at 1.25 h ([4]; kidneys, co-injected AMD3100 5 mg/kg (157 nmol), n = 4, read-out: kidneys uptake): 47.5 ± 3.1 SUV
- SUV at 1.25 h ([4]; kidneys, co-injected DV1-k-(DV3) 7 nmol, n = 3, read-out: kidneys uptake): 39.2 ± 7.6 SUV
- SUV at 1.25 h ([4]; kidneys, co-injected DV1-k-(DV3) 14 nmol, n = 4, read-out: kidneys uptake): 33.6 ± 12.4 SUV
- SUV at 1.25 h ([4]; kidneys, co-injected DV1-k-(DV3) 24 nmol, n = 4, read-out: kidneys uptake): 36.1 ± 5.9 SUV
- SUV at 1.25 h ([4]; kidneys, tracer alone (0 nmol), n = 4, read-out: kidneys uptake): 26.5 ± 6 SUV
- SUV at 1.25 h ([4]; liver, co-injected AMD3100 5 mg/kg (157 nmol), n = 4, read-out: liver uptake): 0.9 ± 0.3 SUV
- SUV at 1.25 h ([4]; liver, tracer alone (0 nmol), n = 4, read-out: liver uptake): 8.2 ± 1 SUV
- SUV at 1.25 h ([4]; liver, with unlabelled DV1-k-(DV3) 7 nmol, co-injected, co-injected DV1-k-(DV3) 7 nmol, n = 3, read-out: liver uptake): 1.2 ± 0.1 SUV
- SUV at 1.25 h ([4]; liver, with unlabelled DV1-k-(DV3) 14 nmol, co-injected, co-injected DV1-k-(DV3) 14 nmol, n = 4, read-out: liver uptake): 1.2 ± 0.4 SUV
- SUV at 1.25 h ([4]; liver, with unlabelled DV1-k-(DV3) 24 nmol, co-injected, co-injected DV1-k-(DV3) 24 nmol, n = 4, read-out: liver uptake): 0.7 ± 0.1 SUV
- SUV at 1.25 h ([4]; lungs, co-injected AMD3100 5 mg/kg (157 nmol), n = 4, read-out: lungs uptake): 0.5 ± 0.1 SUV
- SUV at 1.25 h ([4]; lungs, co-injected DV1-k-(DV3) 7 nmol, n = 3, read-out: lungs uptake): 0.7 ± 0.2 SUV
- SUV at 1.25 h ([4]; lungs, co-injected DV1-k-(DV3) 14 nmol, n = 4, read-out: lungs uptake): 0.9 ± 0.3 SUV
- SUV at 1.25 h ([4]; lungs, co-injected DV1-k-(DV3) 24 nmol, n = 4, read-out: lungs uptake): 0.6 ± 0.2 SUV
- SUV at 1.25 h ([4]; lungs, tracer alone (0 nmol), n = 4, read-out: lungs uptake): 0.6 ± 0.2 SUV
- SUV at 1.25 h ([4]; muscle, co-injected DV1-k-(DV3) 7 nmol, n = 3, read-out: muscle uptake): 0.2 ± 0.1 SUV

From publication PMC8537445, “D-Peptide-Based Probe for CXCR4-Targeted Molecular Imaging and Radionuclide Therapy” (Pharmaceutics, 2021)
